# BindingDB's records for doi:10.1021/jm8009124 (University of Connecticut At Storrs, 2008)
# Target: T1, Bifunctional dihydrofolate reductase-thymidylate synthase (Cryptosporidium parvum, UniProt Q27552)
# T1 sequence (Q27552 whole entry): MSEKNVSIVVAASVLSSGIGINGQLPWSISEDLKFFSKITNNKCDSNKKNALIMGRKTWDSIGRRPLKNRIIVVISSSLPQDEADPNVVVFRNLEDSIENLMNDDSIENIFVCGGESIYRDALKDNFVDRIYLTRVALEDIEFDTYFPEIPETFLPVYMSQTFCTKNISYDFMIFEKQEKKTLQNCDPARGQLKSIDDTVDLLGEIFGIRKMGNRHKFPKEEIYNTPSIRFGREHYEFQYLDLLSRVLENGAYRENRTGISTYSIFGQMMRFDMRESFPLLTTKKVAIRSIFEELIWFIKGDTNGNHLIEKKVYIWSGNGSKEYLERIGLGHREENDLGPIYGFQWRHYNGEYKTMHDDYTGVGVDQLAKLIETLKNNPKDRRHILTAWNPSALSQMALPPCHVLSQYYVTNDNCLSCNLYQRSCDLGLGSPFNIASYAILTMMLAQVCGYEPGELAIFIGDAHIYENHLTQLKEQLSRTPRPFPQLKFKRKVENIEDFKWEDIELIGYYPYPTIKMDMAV
# Assay: DHFR Inhibition Assay
# Conditions: pH 7; 25 °C
# Experimental: Enzyme activity assays were performed by monitoring the change in UV absorbance at 340 nm. Enzyme assays were performed at least four times. IC50 values and their standard deviations were calculated in the presence of varying ligand concentration.
row,SMILES,IC50 [nM]
1,"COc1cc(-c2c(C(C)C)cccc2C(C)C)cc(C(C)C#Cc2c(C)nc(N)nc2N)c1 (stereo unspecified) [5-(3-{3-[2,6-bis(propan-2-yl)phenyl]-5-methoxyphenyl}but-1-yn-1-yl)-6-methylpyrimidine-2,4-diamine]",10
2,"COc1cc(C(C)C#Cc2c(C)nc(N)nc2N)ccc1-c1ccccc1 (stereo unspecified) [5-[3-(3-methoxy-4-phenylphenyl)but-1-yn-1-yl]-6-methylpyrimidine-2,4-diamine]",19
3,"COc1cc(-c2ccccc2)cc([C@@H](C)C#Cc2c(C)nc(N)nc2N)c1 [5-[(3R)-3-(3-methoxy-5-phenylphenyl)but-1-yn-1-yl]-6-methylpyrimidine-2,4-diamine]",1.1
4,"COc1cc(-c2ccccc2)cc([C@H](C)C#Cc2c(C)nc(N)nc2N)c1 [5-[(3S)-3-(3-methoxy-5-phenylphenyl)but-1-yn-1-yl]-6-methylpyrimidine-2,4-diamine]",30
5,"COc1cc(C(C)C#Cc2c(C)nc(N)nc2N)ccc1-c1ccccc1C (stereo unspecified) [5-{3-[3-methoxy-4-(2-methylphenyl)phenyl]but-1-yn-1-yl}-6-methylpyrimidine-2,4-diamine]",36
6,"COc1cc(C(C)C#Cc2c(C)nc(N)nc2N)ccc1-c1c(C)cccc1C (stereo unspecified) [5-{3-[4-(2,6-dimethylphenyl)-3-methoxyphenyl]but-1-yn-1-yl}-6-methylpyrimidine-2,4-diamine]",7.4
